From ChEMBL document CHEMBL1158843, “Development of a radiochemical cyclooxygenase-1 and -2 in vitro assay for identification of natural products as inhibitors of prostaglandin biosynthesis” (J Nat Prod, 1998)

Assays:
[1] = target: T1, Prostaglandin G/H synthase 1 (Bos taurus, UniProt O62664); experiment: Inhibition of bovine seminal microsomal COX1 assessed as PGE2 production
T1 sequence (O62664 whole entry): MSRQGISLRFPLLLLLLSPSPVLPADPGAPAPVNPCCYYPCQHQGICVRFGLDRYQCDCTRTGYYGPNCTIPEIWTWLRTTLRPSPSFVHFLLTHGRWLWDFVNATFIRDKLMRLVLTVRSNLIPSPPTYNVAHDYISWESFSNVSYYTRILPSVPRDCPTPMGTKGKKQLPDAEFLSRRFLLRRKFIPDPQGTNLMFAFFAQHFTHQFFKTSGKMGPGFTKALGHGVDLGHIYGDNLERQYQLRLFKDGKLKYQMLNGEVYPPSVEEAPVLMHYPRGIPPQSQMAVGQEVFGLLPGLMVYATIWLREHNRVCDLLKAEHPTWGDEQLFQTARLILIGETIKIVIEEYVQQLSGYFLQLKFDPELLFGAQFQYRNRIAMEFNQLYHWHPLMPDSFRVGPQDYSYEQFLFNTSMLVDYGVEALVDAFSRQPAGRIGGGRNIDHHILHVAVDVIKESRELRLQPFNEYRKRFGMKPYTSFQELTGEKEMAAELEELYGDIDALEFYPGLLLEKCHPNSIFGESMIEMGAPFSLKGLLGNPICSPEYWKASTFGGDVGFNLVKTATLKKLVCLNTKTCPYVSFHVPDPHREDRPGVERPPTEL

[2] = target: T1, Prostaglandin G/H synthase 1; experiment: Inhibition of bovine seminal microsomal COX1 assessed as PGE2 production preincubated for 10 mins

| SMILES | IC50 [1] [µM] | IC50 [2] [µM] |
| --- | --- | --- |
| Oc1cc(O)c2c(c1)O[C@H](c1ccc(O)c(O)c1)[C@@H](O)C2 [CIANIDANOL] | 183 | 279 |
| C[C@@H]1O[C@@H](Oc2c(-c3ccc(O)c(O)c3)oc3cc(O)cc(O)c3c2=O)[C@H](O)[C@H](O)[C@H]1O [QUERCITRIN] | > 2000 | > 2000 |
